Measurements published in US7265129B2, “Anti-infective biaryl compounds” (priority 2002, dated 2007).

Columns and labels:
[1] = system: B. cereus ATCC 11778; assay: MIC, NCCLS broth microdilution, B. cereus; type: cell-based, Bacillus cereus
Procedure, shortened: (§1)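 MIC determined in microtiter plates by NCCLS broth microdilution following documents M7-A4, M11-A4 and M27-T. Antifungal testing used the method recommended in the Manual of Clinical Microbiology (1995).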

[2] = system: C. albicans ATCC 38247; assay: MIC, antifungal assay, C. albicans; type: cell-based, Candida albicans
Procedure, shortened: as §1

[3] = system: E. faecalis ATCC 29212; assay: MIC, NCCLS broth microdilution, E. faecalis; type: cell-based, Enterococcus faecalis
Procedure, shortened: as §1

[4] = system: S. aureus ATCC 13709; assay: MIC, NCCLS broth microdilution, S. aureus MSSA; type: cell-based, Staphylococcus aureus; conditions: S. aureus ATCC 13709, methicillin sensitive strain (MSSA)
Procedure, shortened: as §1

[5] = system: S. aureus ATCC 27660; assay: MIC, NCCLS broth microdilution, S. aureus MRSA; type: cell-based, Staphylococcus aureus; conditions: S. aureus ATCC 27660, methicillin resistant strain (MRSA)
Procedure, shortened: as §1

[6] = system: S. aureus ATCC 33591; assay: MIC, NCCLS broth microdilution, S. aureus ATCC 33591; type: cell-based, Staphylococcus aureus
Procedure, shortened: as §1

[7] = system: S. pneumoniae ATCC 49619; assay: MIC, NCCLS broth microdilution, S. pneumoniae; type: cell-based, Streptococcus pneumoniae
Procedure, shortened: as §1

[8] = system: E. faecium ATCC 51559; assay: MIC, E. faecium VRE; type: cell-based, Enterococcus faccium; conditions: Table C; E. faecium ATCC 51559, vancomycin resistant strain (VRE)
Procedure: (§2) Compounds according to this invention were screened for their in vitro activities against selected species of bacteria and fungi. The minimal inhibition concentration (MIC) of these compounds was determined using the National Committee for Clinical Laboratory Standards (NCCLS) broth microdilution assay in microtiter plates, as set forth in: (1) the guidelines of the National Committee for Clinical Laboratory Standards (NCCLS) Document M7-A4 (NCCLS, 1997); (2) the guidelines of the National Committee for Clinical Laboratory Standards (NCCLS) Document M11-A4 (NCCLS, 1997); and (3) the guidelines and reference method of the National Committee for Clinical Laboratory Standards (NCCLS) Document M27-T (NCCLS, 1995). For antifungal assays, the method recommended in Murray, P R., 1995 Manual of Clinical Microbiology (ASM Press, Washington, D.C.), was employed.
(§3) Additionally, some compounds were screened against Enterococcus faccium (ATCC 51559, a vancomycin resistant strain (VRE)), Staphylococcus epidermidis (ATCC 12228), Streptococcus pneumoniae (ATCC 51422, a penicillin resistant strain (PRSP)), and/or Streptococcus pyogenes (ATCC 49399).

[9] = system: S. epidermidis ATCC 12228; assay: MIC, S. epidermidis; type: cell-based, Staphylococcus epidermidis; conditions: Table C
Procedure: as §2, §3

[10] = MIC, Table C (organism not given); type: cell-based
Procedure: as §2, §3

Structure (SMILES)	Minimum Inhibitory Concentration (MIC), organism A [1]	Minimum Inhibitory Concentration (MIC), organism B [2]	Minimum Inhibitory Concentration (MIC), organism C [3]	Minimum Inhibitory Concentration (MIC), organism D [4]	Minimum Inhibitory Concentration (MIC), organism E [5]	Minimum Inhibitory Concentration (MIC), organism F [6]	Minimum Inhibitory Concentration (MIC), organism G [7]	Minimum Inhibitory Concentration (MIC), organism A [8]	Minimum Inhibitory Concentration (MIC), organism B [9]	Minimum Inhibitory Concentration (MIC), organism E [10]
CN(C)CCCn1cc(NC(=O)c2ccc(F)cc2F)cc1C(=O)Nc1cc(-c2nc3ccccc3[nH]2)n(C)c1 [Compound A-16]	+++ (MIC ≦ 4 μg/mL)	+ (12 ≦ MIC ≦ 32 μg/mL)	+++ (MIC ≦ 4 μg/mL)	+++ (MIC ≦ 4 μg/mL)	+++ (MIC ≦ 4 μg/mL)	+++ (MIC ≦ 4 μg/mL)	+++ (MIC ≦ 4 μg/mL)	+++ (MIC ≦ 4 pg/mL)	+++ (MIC ≦ 4 pg/mL)	+++ (MIC ≦ 4 pg/mL)
Cn1cc(NC(=O)c2cc(NC(=O)c3sccc3Cl)cn2CCCN2CCSCC2)cc1-c1nc2ccccc2[nH]1 [Compound A-51]	+++ (MIC ≦ 4 μg/mL)	>32 µg/mL	+++ (MIC ≦ 4 μg/mL)	+++ (MIC ≦ 4 μg/mL)	+++ (MIC ≦ 4 μg/mL)	+++ (MIC ≦ 4 μg/mL)	+++ (MIC ≦ 4 μg/mL)	+++ (MIC ≦ 4 pg/mL)	+++ (MIC ≦ 4 pg/mL)	+++ (MIC ≦ 4 pg/mL)
Cn1cc(NC(=O)c2cc(NC(=O)c3sccc3Cl)cn2CCCN2CCCCC2)cc1-c1nc2ccccc2[nH]1 [Compound A-49]	+++ (MIC ≦ 4 μg/mL)	+ (12 ≦ MIC ≦ 32 μg/mL)	+++ (MIC ≦ 4 μg/mL)	+++ (MIC ≦ 4 μg/mL)	+++ (MIC ≦ 4 μg/mL)	+++ (MIC ≦ 4 μg/mL)	+++ (MIC ≦ 4 μg/mL)	+++ (MIC ≦ 4 pg/mL)	+++ (MIC ≦ 4 pg/mL)	+++ (MIC ≦ 4 pg/mL)
CN(C)CCCn1cc(NC(=O)c2ccc(Cl)cc2F)cc1C(=O)Nc1cc(-c2nc3ccncc3[nH]2)n(C)c1 [Compound A-45]	+++ (MIC ≦ 4 μg/mL)	++ (4 < MIC < 12 μg/mL)	+++ (MIC ≦ 4 μg/mL)	+++ (MIC ≦ 4 μg/mL)	+++ (MIC ≦ 4 μg/mL)	+++ (MIC ≦ 4 μg/mL)	+++ (MIC ≦ 4 μg/mL)	+++ (MIC ≦ 4 pg/mL)	+++ (MIC ≦ 4 pg/mL)	+++ (MIC ≦ 4 pg/mL)
Cn1cc(NC(=O)c2cc(NC(=O)c3sccc3Cl)cn2CCCO)cc1-c1nc2ccccc2[nH]1 [Compound A-48]	+++ (MIC ≦ 4 μg/mL)	>32 µg/mL	+++ (MIC ≦ 4 μg/mL)	+++ (MIC ≦ 4 μg/mL)	+++ (MIC ≦ 4 μg/mL)	+++ (MIC ≦ 4 μg/mL)	+++ (MIC ≦ 4 μg/mL)	+++ (MIC ≦ 4 pg/mL)	+++ (MIC ≦ 4 pg/mL)	+++ (MIC ≦ 4 pg/mL)
Cn1cc(NC(=O)c2cc3ccccc3cn2)cc1C(=O)Nc1cc(-c2nc3ccc(Cl)cc3[nH]2)n(C)c1 [Compound A-7]	+++ (MIC ≦ 4 μg/mL)	>32 µg/mL	+++ (MIC ≦ 4 μg/mL)	+++ (MIC ≦ 4 μg/mL)	+++ (MIC ≦ 4 μg/mL)	+++ (MIC ≦ 4 μg/mL)	+++ (MIC ≦ 4 μg/mL)	+++ (MIC ≦ 4 pg/mL)	+++ (MIC ≦ 4 pg/mL)	+++ (MIC ≦ 4 pg/mL)
CN(C)CCCn1cc(NC(=O)c2cc3ccccc3cn2)cc1C(=O)Nc1cc(-c2nc3ccccc3[nH]2)n(C)c1 [Compound A-1]	+++ (MIC ≦ 4 μg/mL)	+++ (MIC ≦ 4 μg/mL)	+++ (MIC ≦ 4 μg/mL)	+++ (MIC ≦ 4 μg/mL)	+++ (MIC ≦ 4 μg/mL)	+++ (MIC ≦ 4 μg/mL)	+++ (MIC ≦ 4 μg/mL)	+++ (MIC ≦ 4 pg/mL)	+++ (MIC ≦ 4 pg/mL)	+++ (MIC ≦ 4 pg/mL)
Cn1cc(NC(=O)c2cc(NC(=O)c3sccc3Cl)cn2CCCN2CCOCC2)cc1-c1nc2ccccc2[nH]1 [Compound A-50]	+++ (MIC ≦ 4 μg/mL)	>32 µg/mL	+++ (MIC ≦ 4 μg/mL)	+++ (MIC ≦ 4 μg/mL)	+++ (MIC ≦ 4 μg/mL)	+++ (MIC ≦ 4 μg/mL)	+++ (MIC ≦ 4 μg/mL)	+++ (MIC ≦ 4 pg/mL)	+++ (MIC ≦ 4 pg/mL)	+++ (MIC ≦ 4 pg/mL)
Cc1ccc2nc(-c3cc(NC(=O)c4cc(NC(=O)c5cc6ccccc6cn5)cn4C)cn3C)[nH]c2c1 [Compound A-2]	+++ (MIC ≦ 4 μg/mL)	>32 µg/mL	+++ (MIC ≦ 4 μg/mL)	+++ (MIC ≦ 4 μg/mL)	+++ (MIC ≦ 4 μg/mL)	+++ (MIC ≦ 4 μg/mL)	+++ (MIC ≦ 4 μg/mL)	+++ (MIC ≦ 4 pg/mL)	+++ (MIC ≦ 4 pg/mL)	+++ (MIC ≦ 4 pg/mL)
COc1ccc2nc(-c3cc(NC(=O)c4cc(NC(=O)c5cc6ccccc6cn5)cn4C)cn3C)[nH]c2c1 [Compound A-4]	+++ (MIC ≦ 4 μg/mL)	>32 µg/mL	+++ (MIC ≦ 4 μg/mL)	+++ (MIC ≦ 4 μg/mL)	+++ (MIC ≦ 4 μg/mL)	+++ (MIC ≦ 4 μg/mL)	+++ (MIC ≦ 4 μg/mL)	+++ (MIC ≦ 4 pg/mL)	+++ (MIC ≦ 4 pg/mL)	+++ (MIC ≦ 4 pg/mL)
Cn1cc(NC(=O)c2cc3ccccc3cn2)cc1C(=O)Nc1cc(-c2nc3ccc(NC(=O)C(F)(F)F)cc3[nH]2)n(C)c1 [Compound A-5]	+++ (MIC ≦ 4 μg/mL)	>32 µg/mL	+++ (MIC ≦ 4 μg/mL)	+++ (MIC ≦ 4 μg/mL)	+++ (MIC ≦ 4 μg/mL)	+++ (MIC ≦ 4 μg/mL)	+++ (MIC ≦ 4 μg/mL)	+++ (MIC ≦ 4 pg/mL)	+++ (MIC ≦ 4 pg/mL)	+++ (MIC ≦ 4 pg/mL)
